In patent US20210330611A1, “THERAPY FOR NEUROLOGICAL DISEASES/DISORDERS” (priority 2020, published 2021):
Counter-ions that a name gives are not always drawn. Like-named read-outs stand apart in the source and are kept apart here.

Tests used:
[1] = test system: fibrin- and LPS-induced microglia activation; experiment: cells; assay type: cell-based, rat; details: HTS of 1907 compounds, quadrant by fibrin and LPS inhibition
primary rat microglia [2] = experiment: Cell toxicity (dead cells, size <150 μm2) in coated fibrin (cFib) assay; details: primary microglia HTS, 10 μM, fibrin assay, cell size <150 μm^2 as marker of toxicity;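 further: share of dead cells sized under 150 µm2 at 10 µM in fibrin-stimulated microglia HTS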
[3] = test system: fibrin-induced microglia activation; experiment: Image-based assay of fibrin-induced microglia activation (HTS and dose response); assay type: cell-based, rat; details: for inhibition at 10 µM: Rattus norvegicus, Microglia, read-out: Fibrin % inhibition
primary rat microglia [4] = experiment: Cell toxicity (dead cells, size <150 μm2) in LPS assay; details: primary microglia HTS, 10 μM, LPS assay, cell size <150 μm^2 as marker of toxicity
[5] = test system: LPS-induced microglia activation; experiment: Image-based assay of LPS-induced microglia activation (HTS and dose response); assay type: cell-based, rat; details: for inhibition at 10 µM: Rattus norvegicus, Microglia, read-out: LPS % inhibition
[6] = primary microglia HTS, 10 μM, fibrin-stimulated, cell size >800 μm^2 as marker of activation
[7] = primary microglia HTS, 10 μM, LPS-stimulated, cell size >800 μm^2 as marker of activation

Row | Structure (SMILES) | Quadrant (FIG. 5b) [1] | Fibrin % cell toxicity (primary rat microglia [2]) [%] | inhibition at 10 µM [3, 6] [%] | LPS % cell toxicity (primary rat microglia [4]) [%] | inhibition at 10 µM [5, 7] [%] | inhibition at 10 µM [3] [%] | inhibition at 10 µM [5] [%] | Fibrin % inhibition [3, 6] [%] | LPS % inhibition [5, 7] [%]
1 | Cc1onc(-c2ccccc2)c1-c1ccc(S(N)(=O)=O)cc1 [Valdecoxib] | Q4 | 1 | -39 | 0 | -4 |  |  |  | 
2 | CC(C)[C@H](N)C(=O)OCC(CO)OCn1cnc2c(=O)nc(N)[nH]c21 (stereo partly shown) [Valganciclovir] | Q4 | 0 | -12 | 1 | 14 |  |  |  | 
3 | CCCCC(=O)N(Cc1ccc(-c2ccccc2-c2nnn[nH]2)cc1)[C@H](C(=O)O)C(C)C [Valsartan] | Q4 | 0 |  | 0 |  | -17 | 12 |  | 
4 | CC(=O)O[C@H]1C[C@@H]2CC[C@@H]3[C@H](CC[C@@]4(C)[C@H]3C[C@H]([N+]3(C)CCCCC3)[C@@H]4OC(C)=O)[C@@]2(C)C[C@@H]1N1CCCCC1 [Vecuronium Bromide] | Q4 | 1 |  | 0 |  |  |  | 7 | 23
5 | CC(=O)O[C@H]1C[C@@H]2CC[C@@H]3[C@H](CC[C@@]4(C)[C@H]3C[C@H]([N+]3(C)CCCCC3)[C@@H]4OC(C)=O)[C@@]2(C)C[C@@H]1N1CCCCC1 [Vecuronium] | Q4 | 1 |  | 1 |  |  |  | −24 | 0
6 | COc1ccc(C(CN(C)C)C2(O)CCCCC2)cc1 (stereo not shown) [Venlafaxine, Venlafaxine Hydrochloride] | Q4 | 1 |  | 0 |  |  |  | 3 | 20
7 | Nc1ncnc2c1ncn2[C@@H]1O[C@H](CO)[C@@H](O)[C@@H]1O [Vidarabine] | Q4 | 1 | -3 | 0 | 14 |  |  |  | 
8 | N#Cc1ccc2[nH]cc(CCCCN3CCN(c4ccc5oc(C(N)=O)cc5c4)CC3)c2c1 [Vilazodone] | Q4 | 1 | 1 | 1 | 27 |  |  |  | 
9 | CC[C@]12CCCN3CCc4c(n(c5ccccc45)[C@@](O)(C(=O)OC)C1)[C@@H]32 [Vincamine] | Q4 | 0 | 1 | 0 | 20 |  |  |  | 
10 | Cc1cc(C(C)(C)C)cc(C)c1CC1=NCCN1 [Xylometazoline] | Q4 | 0 | -5 | 1 | 19 |  |  |  | 
11 | COC(=O)[C@@H]1[C@H]2C[C@H]3c4[nH]c5ccccc5c4CCN3C[C@@H]2CC[C@@H]1O [Yohimbine Hydrochloride] | Q4 | 1 |  | 1 |  |  |  | −8 | 19
